Laboratory results: patent US20120009131A1, “METHOD FOR PREVENTING OR TREATING AMYLOID BETA PEPTIDE-ASSOCIATED DISEASES OR CONDITIONS, AND METHOD FOR INHIBITING FORMATION, ACCUMULATION OR AGGREGATION OF AMYLOID BETA PEPTIDES” (Sinphar Tian-Li Pharmaceutical Co., Ltd. (Hangzhou), priority 2010, published 2012)
Marks after values point to notes of the source that are not given here.

How the values were obtained:
[1] = system: extracellular Aβ1-40 accumulation in SH-SY5Y cells; assay: Effect on extracellular Aβ1-40 accumulation (Human Aβ1-40 immunoassay of the medium); assay type: cell-based; conditions: 50 μg/ml, 24 hours, mean±SD
Description: (§1) Wild-type human neuroblastoma cells (SH-SY5Y) were cultured in Eagle's Minimum essential Medium (EMEM)/Ham's F12 medium (1:1 mixture) (containing 10% FBS, 10 units/ml penicillin, 10 μg/ml Streptomycin). Wild-type mouse neuroblastoma Neuro-2a cells were cultured in minimum essential medium (MEM) (containing 10% FBS, 10 units/ml penicillin, 10 μg/ml Streptomycin).
The medium of the wild-type human neuroblastoma SH-SY5Y cells in Example 1 were switched into chemical defined medium (EMEM/F12 medium (Cat. No. 12500-062), Hepes 5 mM, Glucose 0.6%, NaHCO3 3 mM, Glutamine 2.5 mM, Insulin 25 μg/ml, Transferin 100 μg/ml, Progestrone 20 nM, Putrescine 60 μM, Sodium selenite 30 nM, Heparin 2 μg/ml). Each well contained 1×10^5 SH-SY5Y cells in 300 μl of culture medium. Thirty minutes later, each well was treated with the test samples A-D given in Table 1 respectively at a concentration of 50 μg/ml for 24 hours. After that, the level of Aβ1-40 in the medium of each well was analyzed by Human Aβ1-40 immunoassay kits (Catalog #KHB3482 Invitrogen).
Human neuroblastoma SH-SY5Y cells cause extracellular accumulation of Aβ. […] The results were shown in mean±standard deviation (SD) form. Significant difference between the Vehicle control group and the test sample-treated groups were indicated by *., P<0.05, *.*, P<0.01, and. ***., P<0.001.

[2] = system: Aβ-degrading enzymes released by Neuro-2a cells; assay: Effect on extracellular Aβ1-40 degradation in Neuro-2a conditioned medium; assay type: biochemical, mouse; conditions: Neuro-2a medium, 50 μg/ml, 10 ng synthetic Aβ1-40, 24 hours
Description: as §1
Mouse neuroblastoma Neuro-2a cells will release Aβ-degrading enzymes in the chemical defined medium, but will not produce detectable amount of Aβ in the medium. The Neuro 2a cells were incubated in the medium for 24 hours, and then the medium were drawn out without cells. The medium were individually treated with the test samples A-D at a concentration of 50 μg/ml and 10 ng synthetic Aβ1-40 for 24 hours, and then the effects of each test sample on promoting the enzymes in the medium were examined. The remaining Aβ1-40 amount of each well was analyzed by Human Aβ1-40 Immunoassay kits (Catalog #KHB3482 Invitrogen), expressing as percentage, as compared with the Vehicle control group.

[3] = biological target: Human Aβ1-42 (Homo sapiens, UniProt P05067); assay: Aβ1-42 oligomerization (thioflavin T fluorescence); assay type: biochemical; conditions: 50 μg/ml, 24 hours
Chain of Human Aβ1-42 (P05067 672-713 limits assumed): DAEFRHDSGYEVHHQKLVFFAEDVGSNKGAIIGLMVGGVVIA
Description: Dried Human Aβ1-42 was taken out from the refrigerator and equilibrated to room temperature. Aβ1-42 was dissolved in 1,1,1,3,3,3-Hexa-fluro-2-propanol (HFIP) to a concentration of 1 mM, and was then placed at room temperature for one hour. The Aβ1-42/HFIP solution was aliquoted by Hamilton syringe, and was then dried under a stream of nitrogen gas, followed by storing at a temperature of −20[…]. Aβ1-42 treated with HFIP was dissolved in PBS, and was vibration-incubated with treatment of each test sample at a concentration of 50 μg/ml and at 4[…] for 24 hours to prepare Aβ1-42 oligomers. The level of Aβ1-42 oligomerization was analyzed by thioflavin T fluorescence (Ex=450 nm, Em=482 nm).

[4] = system: SD rats infused intracerebroventricularly with Aβ1-42; assay: Exploration behavior test in Aβ1-42-infused rats; assay type: in vivo, rat; conditions: oral
Description: (§2) The rats were anesthetized for implantation of an infusion cannula into the left cerebral ventricle thereof. After sewing up the incisions, the rats were returned to their cages. FIG. 7 illustrates the experimental schedule for animal studies. The exploration behavior tests were carried out on day 7, the passive avoidance learning tests were carried out on day 8 and 9, the water maze tests were carried on day 10 to 13, and the probe tests were carried out on day 14, after the start of Aβ1-42 infusion. […] The test samples were administered orally to the rats, 1 hour before the tests (i.e., the exploration behavior tests, the passive avoidance learning tests, and the water maze tests) throughout the experimental period. […] All the test samples were prepared freshly with deionized distilled water (ddH2O) every day, and were administered orally by stomach tube.
(§3) Significant difference between the Aβ1-42 control group and the other experimental groups were indicated by *., P<0.05, *.*, P<0.01, and. ***., P<0.001.

[5] = system: SD rats infused intracerebroventricularly with Aβ1-42; assay: Passive avoidance response test in Aβ1-42-infused rats; assay type: in vivo, rat; conditions: oral
Description: as §2, §3

[6] = system: SD rats infused intracerebroventricularly with Aβ1-42; assay: Water maze spatial performance and probe tests in Aβ1-42-infused rats; assay type: in vivo, rat; conditions: oral
Description: as §2, §3

[7] = system: Aβ1-42 plaques in rat brain; assay: Immunohistochemical staining for Aβ1-42 in the hippocampus section of rat's brain; assay type: in vivo; conditions: oral
Source text: In the following Examples 7 to 11 illustrated below, male Sprague-Dawley (SD) rats, weighed 250-300 gm, were obtained from BioLASCO Taiwan Co. Ltd. The SD rats were infused intracerebroventricularly with Aβ1-42 to cause neuronal damage, affecting their memory and learning ability, and leading to form senile plaque-like aggregates in the rat's brain, being used as an animal model of Alzheimer's disease. Alzheimer's disease animal model induced by Aβ can be referred to, for example, Nabeshima et al. (Neuroscience Letters (1994) 170: 63-66)(British Journal of Pharmacology (1999) 126: 235-244).
The rats were anesthetized for implantation of an infusion cannula into the left cerebral ventricle thereof. After sewing up the incisions, the rats were returned to their cages. FIG. 7 illustrates the experimental schedule for animal studies. The exploration behavior tests were carried out on day 7, the passive avoidance learning tests were carried out on day 8 and 9, the water maze tests were carried on day 10 to 13, and the probe tests were carried out on day 14, after the start of Aβ1-42 infusion. The Sham group was treated with TFA solution (64.9% sterile ddH2O, 35% acetonitrile, 0.1% trifluoroacetic acid), and the other experimental groups were treated with 0.5 μl of Aβ1-42 dissolved in TFA solution per hour, corresponding to 300 pmol/12 μl of Aβ1-42 (Tocris 1428; MW: 4514.08) per day. The test samples were administered orally to the rats, 1 hour before the tests (i.e., the exploration behavior tests, the passive avoidance learning tests, and the water maze tests) throughout the experimental period. […] All the test samples were prepared freshly with deionized distilled water (ddH2O) every day, and were administered orally by stomach tube.
All rats were sacrificed and their brains were removed, cut into slices and stained. Neurotransmitters were also tested.
After the water maze performance tests, all rats were decapitated and their brains were rapidly removed from the skull, and then immunohistochemical staining for Aβ1-42 in the hippocampus section of their brains. […]

[8] = system: SD rats infused intracerebroventricularly with Aβ1-42; assay: Dopamine (DA) and metabolites DOPAC and HVA levels in brain cortex and hippocampus of rats; assay type: in vivo, rat; conditions: for DA level / DOPAC level / HVA level: mean±SD
Description: as §2, §3
After the water maze performance tests, all rats were decapitated and their brains were rapidly removed from the skull. According to Glowinski and Iversen, the brain cortex and hippocampus were separated, and then each cortex and hippocampus were weighed and were homogenized by addition of 50 mM Na-phosphate buffer (pH 7.8) for analyzing the concentrations of neurotransmitters and the levels of enzymes.

[9] = system: SD rats infused intracerebroventricularly with Aβ1-42; assay: Acetylcholine and choline levels in brain cortex and hippocampus of rats; assay type: in vivo, rat; conditions: oral
Description: as §2, §3
(§4) After the water maze performance tests, all rats were decapitated and their brains were rapidly removed from the skull. […]

[10] = system: acetylcholinesterase; assay: Acetylcholinesterase activities in brain cortex and hippocampus of rats; assay type: in vivo, rat; conditions: oral; D 2.5 and 5 mg/kg, Aricept 0.75 mg/kg
Description: as §2, §3, §4

[11] = D 2.5 and 5 mg/kg, Aricept 0.75 mg/kg
[12] = brain hippocampus, oral 2.5 mg/kg
[13] = brain hippocampus, oral 5 mg/kg

## Isoacteoside [Test sample D]
[1]
  reduction of the level of Aβ1-40 in the medium in comparison with the Vehicle control group: about 47.44±16.62%
[2]
  Aβ1-40 degradation (remaining Aβ1-40 amount): does not accelerate Aβ degradation
[3]
  activity on inhibiting Aβ1-42 oligomerization (in words): possess activities on inhibiting Aβ1-42 oligomerization
  inhibition of Aβ1-42 oligomerization: 98.93±1.70%
[4]; 5 mg/kg
  exploratory activities, compared with Aricept 0.75 mg/kg: shows better effects than Aricept 0.75 mg/kg
[4]; D 2.5 and 5 mg/kg, Aricept 0.75 mg/kg, day 7
  exploratory activities of the rats: effective in improving the exploratory activities of the rats
[5]; 2.5 mg/kg
  passive avoidance response, compared with Aricept 0.75 mg/kg: shows equivalent effect with Aricept 0.75 mg/kg
[5]; 5 mg/kg
  passive avoidance response, compared with Aricept 0.75 mg/kg: shows better effects than Aricept 0.75 mg/kg
[5]; [11]
  passive avoidance learning impairment (step-through latency): reverse the passive avoidance learning impairment
[6]; 5 mg/kg
  water maze spatial performance and probe test, compared with Aricept 0.75 mg/kg: shows better effects than Aricept 0.75 mg/kg
[6]; [11]
  deficits of the water maze spatial performance and the probe test: can be improved
[7]; 2.5 mg/kg
  plaques found in the brain of the rat: few plaques
[7]; 5 mg/kg
  plaques found in the brain of the rat: almost no plaques
[7]; D 2.5 and 5 mg/kg vs Aricept 0.75 mg/kg
  plaques in the brain, compared with Aricept-treated rat: less than that in the brain of the rat treated with Aricept
[8]; brain cortex, oral 2.5 mg/kg
  DA level: 2.67 ± 0.43
  DOPAC level: 12.53 ± 3.33
  HVA level: 2.92 ± 0.58
[8]; brain cortex, oral 5 mg/kg
  DA level: 3.84 ± 0.47*
  DOPAC level: 13.80 ± 3.03
  HVA level: 2.74 ± 0.69
[8]; [12]
  DA level: 5.41 ± 1.30***
  DOPAC level: 4.98 ± 1.15
  HVA level: 3.68 ± 0.46
[8]; [13]
  DA level: 4.07 ± 0.59***
  DOPAC level: 4.13 ± 0.45
  HVA level: 3.29 ± 0.25
[8]; oral, D 2.5 and 5 mg/kg, Aricept 0.75 mg/kg
  DA levels in the cortex and hippocampus (in words): reverse the decrease in DA levels
[9]; 5 mg/kg
  acetylcholine levels in the brain cortex and hippocampus: particularly potent
[9]; [11]
  acetylcholine levels in the brain cortex and hippocampus: reverse the decrease in acetylcholine levels
[10]
  acetylcholinesterase activities in the brain cortex and hippocampus: reverse the increase in acetylcholinesterase activities

## C[C@@H]1O[C@@H](O[C@@H]2[C@@H](O)[C@H](OCCc3ccc(O)c(O)c3)O[C@H](CO)[C@H]2OC(=O)/C=C/c2ccc(O)c(O)c2)[C@H](O)[C@H](O)[C@H]1O [Test sample C, Acteoside, reference compound]
[1]
  reduction of the level of Aβ1-40 in the medium in comparison with the Vehicle control group: about 20%
[3]
  activity on inhibiting Aβ1-42 oligomerization (in words): possess activities on inhibiting Aβ1-42 oligomerization

## C[C@@H]1O[C@@H](O[C@@H]2[C@@H](O)[C@H](OCCc3ccc(O)c(O)c3)O[C@H](CO[C@@H]3O[C@H](CO)[C@@H](O)[C@H](O)[C@H]3O)[C@H]2OC(=O)/C=C/c2ccc(O)c(O)c2)[C@H](O)[C@H](O)[C@H]1O [Test sample B, Echinacoside, reference compound]
[3]
  activity on inhibiting Aβ1-42 oligomerization (in words): possess activities on inhibiting Aβ1-42 oligomerization
